Test results from the supplement of paper PMC10307832.

What was measured:
Experiment in all cases: relative viability (nuclei count vs DMSO), 5 days (fraction); higher = more cells survive
[1] = compound: CCn1c(-c2nonc2N)nc2cnc(Oc3cccc(NC(=O)c4ccc(OCCN5CCOCC5)cc4)c3)cc21 + CC(=O)Nc1cccc(-n2c(=O)n(C3CC3)c(=O)c3c(Nc4ccc(I)cc4F)n(C)c(=O)c(C)c32)c1 [Trametinib] (partner 0.02 µM)
Method in brief: (§1)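 Nuclei were stained with Hoechst during a one-step fixation (final 0.05% Triton X-100, 1% formaldehyde, 1 ug/ml Hoechst) carried out 5 days after dosing, then counted on 4× images. The cells, lung cancer lines in 1536-well plates, had been dosed by pin tool the day after seeding with one drug alone or a fixed anchor-drug dose plus five library-drug doses (not always all listed) in √10 steps. Relative viability is the nuclei count in treated wells divided by that in vehicle wells, and each value is the median of duplicate plates.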

[2] = compound: CCn1c(-c2nonc2N)nc2cnc(Oc3cccc(NC(=O)c4ccc(OCCN5CCOCC5)cc4)c3)cc21 + Cc1nc(Nc2ncc(C(=O)Nc3c(C)cccc3Cl)s2)cc(N2CCN(CCO)CC2)n1 [Dasatinib] (partner 0.075 µM)
Method in brief: as §1

[3] = compound: CCC1=CN=CN=C1N2CCN(CC2)CC3=NC4=C(N3)C=C(C=C4)C(F)(F)F + CS(=O)(=O)CCNCc1ccc(-c2ccc3ncnc(Nc4ccc(OCc5cccc(F)c5)c(Cl)c4)c3c2)o1 [Lapatinib] (partner 2 µM)
Method in brief: as §1

[4] = compound: CCn1c(-c2nonc2N)nc2cnc(Oc3cccc(NC(=O)c4ccc(OCCN5CCOCC5)cc4)c3)cc21 + CS(=O)(=O)CCNCc1ccc(-c2ccc3ncnc(Nc4ccc(OCc5cccc(F)c5)c(Cl)c4)c3c2)o1 [Lapatinib] (partner 2 µM)
Method in brief: as §1

Row | Cell Line | relative viability ([1]; first compound 0.04 µM) | relative viability ([1]; first compound 0.1265 µM) | relative viability ([1]; first compound 0.4 µM) | relative viability ([1]; first compound 1.265 µM) | relative viability ([1]; first compound 4 µM) | relative viability ([2]; first compound 0.04 µM) | relative viability ([2]; first compound 0.1265 µM) | relative viability ([2]; first compound 0.4 µM) | relative viability ([2]; first compound 1.265 µM) | relative viability ([2]; first compound 4 µM) | relative viability ([3]; first compound 0.04 µM) | relative viability ([3]; first compound 0.1265 µM) | relative viability ([3]; first compound 0.4 µM) | relative viability ([3]; first compound 4 µM) | relative viability ([4]; first compound 0.04 µM) | relative viability ([4]; first compound 0.1265 µM) | relative viability ([4]; first compound 1.265 µM) | relative viability ([4]; first compound 4 µM) | relative viability ([3]; first compound 1.265 µM) | relative viability ([4]; first compound 0.4 µM)
1 | SW 900 | 0.602 | 0.802 | 0.828 | 0.918 | 0.849 | 0.413 | 0.456 | 0.312 | 0.42 | 0.41 | – | – | – | – | – | – | – | – | – | –
2 | NCI-H1944 | 0.409 | 0.365 | 0.441 | 0.467 | 0.359 | 0.192 | 0.154 | 0.138 | 0.157 | 0.139 | 0.976 | 0.691 | 0.767 | 0.875 | 0.822 | 0.699 | 0.691 | 0.553 | – | –
3 | NCI-H838 | 0.347 | 0.231 | 0.213 | 0.17 | 0.188 | 0.314 | 0.192 | 0.199 | 0.208 | 0.183 | 1.09 | 0.876 | 0.92 | 1.03 | 0.804 | 0.485 | 0.281 | 0.261 | 0.692 | 0.323
4 | NCI-H1650 | 0.668 | 0.543 | 0.52 | 0.37 | 0.496 | 0.324 | 0.36 | 0.371 | 0.398 | 0.363 | 0.721 | 0.797 | 0.711 | 0.645 | 1.04 | 0.747 | 0.671 | 0.694 | 0.39 | 0.74
5 | HCC-827 | 0.586 | 0.662 | 0.683 | 0.573 | 0.689 | 0.24 | 0.328 | 0.459 | 0.484 | 0.424 | 0.201 | 0.182 | 0.184 | 0.178 | 0.195 | 0.273 | 0.251 | 0.21 | 0.165 | 0.197
6 | HCC-366 | 0.335 | 0.334 | 0.322 | 0.0755 | 0.0555 | 0.699 | 0.504 | 0.0838 | 0.0451 | 0.0508 | 1.01 | 1.05 | 0.988 | 1.13 | 1.25 | 1.01 | 0.0431 | 0.0373 | – | 0.251
7 | HARA | 0.494 | 0.874 | 0.687 | 0.333 | 0.254 | 0.243 | 0.213 | 0.124 | 0.0816 | 0.074 | 0.894 | 0.762 | 0.687 | 0.866 | 0.826 | 0.732 | 0.217 | 0.213 | 0.602 | 0.27
8 | NCI-H441 | 0.466 | 0.43 | 0.289 | 0.38 | 0.477 | 0.635 | 0.683 | – | 0.685 | 0.549 | – | – | – | – | – | – | – | – | – | –
9 | A549 | – | – | – | – | – | – | – | – | – | – | 0.885 | 0.948 | 0.823 | 0.808 | 1.25 | 0.916 | 0.118 | 0.107 | 0.945 | 0.884
10 | NCI-H2342 | 0.803 | 0.85 | 0.989 | 0.621 | 0.801 | 0.332 | 0.319 | 0.294 | 0.289 | 0.302 | – | – | – | – | – | – | – | – | – | –
11 | NCI-H1623 | – | – | – | – | – | 0.655 | 0.797 | 0.529 | 0.543 | 0.606 | – | – | – | – | – | – | – | – | – | –
12 | Calu-6 | – | – | – | – | – | – | – | – | – | – | 1.1 | 1.11 | 1.05 | 1.03 | 1.22 | 0.932 | 0.616 | 0.517 | 0.988 | 0.985
13 | LCLC-103H | 0.651 | 0.737 | 0.655 | 0.638 | 0.639 | 0.532 | 0.37 | 0.134 | 0.227 | 0.178 | – | – | – | – | – | – | – | – | – | –
14 | NCI-H1563 | – | – | – | – | – | 0.447 | 0.452 | 0.343 | 0.461 | 0.456 | 0.903 | 0.908 | 0.984 | 1.36 | 1.01 | 0.822 | 0.782 | 0.673 | 0.715 | 0.804
15 | NCI-H522 | 0.739 | 0.705 | 0.652 | 0.629 | 0.751 | 0.735 | 0.797 | 0.656 | 0.614 | 0.667 | – | – | – | – | – | – | – | – | – | –
16 | HCC-44 | 1.06 | 1.12 | 1.04 | 1.05 | 1.03 | – | – | – | – | – | 0.932 | 0.956 | 0.975 | 0.85 | 1.07 | 1.1 | 0.342 | 0.368 | 1.05 | 0.622
17 | NCI-H1299 | – | – | – | – | – | – | – | – | – | – | 0.977 | 0.985 | 0.96 | 0.955 | 0.951 | 0.86 | 0.724 | 0.625 | 0.948 | 0.836
18 | ChaGo-K-1 | 1.06 | 0.928 | 0.844 | 0.89 | 0.866 | 0.592 | 0.442 | 0.365 | 0.394 | 0.395 | – | – | – | – | – | – | – | – | – | –
19 | NCI-H1648 | 0.511 | 0.431 | 0.576 | 0.779 | 0.705 | – | – | – | – | – | – | – | – | – | – | – | – | – | – | –
20 | EBC-1 | – | – | – | – | – | – | – | – | – | – | 0.224 | 0.3 | 1.47 | 1.31 | 0.224 | 0.206 | 0.179 | 0.197 | 1.52 | 0.196
21 | IA-LM | – | – | – | – | – | – | – | – | – | – | 0.85 | 0.781 | 0.736 | 0.893 | 1.14 | 0.915 | 0.913 | 0.909 | 0.923 | 1.11
22 | ABC-1 | – | – | – | – | – | 0.54 | 0.51 | 0.414 | 0.311 | 0.372 | 1.23 | 1.24 | 1.25 | 0.98 | 1.3 | 0.997 | – | 1.08 | 1.01 | –
23 | NCI-H1703 | – | – | – | – | – | – | – | – | – | – | 0.966 | 0.819 | 0.921 | 0.923 | 1.2 | 0.939 | 0.376 | 0.361 | 0.804 | 0.715
